The target of assay [1] is T1, Sialidase (Clostridium perfringens) (UniProt P10481).
T1 sequence (whole entry): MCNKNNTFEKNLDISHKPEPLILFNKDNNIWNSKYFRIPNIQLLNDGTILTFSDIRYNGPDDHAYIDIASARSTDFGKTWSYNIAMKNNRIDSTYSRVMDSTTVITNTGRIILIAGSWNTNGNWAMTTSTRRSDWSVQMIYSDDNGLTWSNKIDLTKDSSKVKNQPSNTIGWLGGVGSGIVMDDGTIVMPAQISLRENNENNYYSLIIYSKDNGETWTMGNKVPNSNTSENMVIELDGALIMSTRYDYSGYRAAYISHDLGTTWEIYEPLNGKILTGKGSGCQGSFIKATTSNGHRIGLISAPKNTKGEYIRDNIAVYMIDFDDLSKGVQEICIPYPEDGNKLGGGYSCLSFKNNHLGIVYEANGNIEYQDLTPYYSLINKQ
The assay can be described thus: (§1) Inhibition of Clostridium perfringens neuraminidase by fluorimetry.

Assay [2] deals with T2, Sialidase (Clostridium perfringens, UniProt P10481).
T2 sequence (P10481 whole entry): T1 sequence (whole entry)
Described as §1.

The target of assay [3] is T2, Sialidase. The assay can be described thus: Apparent binding affinity at Clostridium perfringens neuraminidase by fluorimetry. The conditions noted are these: read-out: Ki(app).
Assay [4] addresses T2, Sialidase. The assay can be described thus: Competitive inhibition of Clostridium perfringens neuraminidase by Lineweaver-Burke plot and Dixon plot.
The target of assay [5] is T1, Sialidase (Clostridium perfringens). The assay can be described thus: Inhibition of Clostridium perfringens neuraminidase at 200 uM by fluorimetry.

The structures appear in SMILES notation. Values joined by “and” are separate entries in the source; they are usually repeats but may differ in a detail not shown here. Equal entries are not always repeated.

With `CC(C)=CCc1c(O)c(O)cc2c(=O)c3c(O)c4c(cc3oc12)OC(C)C4(C)C` (centres undefined) [CUDRAXANTHONE M], the Activity entry in assay [1] was “Dose-dependent effect”. Also, inhibition in assay [2] was half-maximal at 186 nM (IC50). The Ki in assay [3] came to 510 nM; in assay [4], 98 nM.
Take `C=CC(C)(C)c1c2c(c(O)c3c(=O)c4ccc(O)c(O)c4oc13)C=CC(C)(C)O2` [MACLURAXANTHONE]: in assay [1], the Activity result was “Dose-dependent effect”. Further, 186 nM corresponded to half-maximal inhibition in assay [2] (IC50). Also, the results for the Ki in assay [3] and in assay [4] were 477 nM and 103 nM, respectively.
For `C=CC(C)(C)c1c(O)cc(O)c2c(=O)c3cc(O)c4c(c3oc12)C=CC(C)(C)O4`, in assay [5], the Activity result was “Dose-dependent effect” and the inhibition turned out to be 30%.
Consider `C=CC(C)(C)c1c(O)cc(O)c2c(=O)c3c(CC=C(C)C)c(O)c(O)cc3oc12` [CUDRATRICUSXANTHONE A], for which, in assay [1], the Activity result is “Dose-dependent effect”. Besides, the IC50 in assay [2] amounted to 245 nM. In addition, the Ki in assay [3] was 214 nM; in assay [4] it was 136 nM.
For `C=CC(C)(C)c1c(O)cc2oc3c(CC=C(C)C)c(O)c(O)cc3c(=O)c2c1O` [CUDRAXANTHONE L], in assay [1], the Activity result was “Dose-dependent effect”. Moreover, half-maximal inhibition in assay [2] (IC50) required 228 nM. The Ki was determined as 568 nM in assay [3] and 138 nM in assay [4].
For the molecule `C=CC(C)(C)c1c(OC)cc(O)c2c(=O)c3c(CC=C(C)C)c(O)c(O)cc3oc12` [CUDRAXANTHONE D], in assay [1], the Activity result was “Dose-dependent effect”. The IC50 in assay [2] is 278 nM and 1270 nM. The Ki in assay [3] is 436 nM and 2230 nM; in assay [4], 143 nM and 950 nM.
As for `O=c1c2cc(O)c(O)cc2oc2cc(O)c([C@@H]3O[C@H](CO)[C@@H](O)[C@H](O)[C@H]3O)c(O)c12` [MANGIFERIN], in assay [2], the IC50 is 16200 nM.
On to `O=c1cc(-c2ccc(O)cc2)oc2cc(O)cc(O)c12` [APIGENIN], for which, in assay [2], the IC50 stood at 17400 nM.
In turn, `O=c1c(O)c(-c2ccc(O)c(O)c2)oc2cc(O)cc(O)c12` [QUERCETIN] had an IC50 in assay [2] of 2700 nM.
Take `C=CC(C)(C)c1c(O)cc2oc3cc(O)c(O)c(CC=C(C)C)c3c(=O)c2c1O`: the Activity entry in assay [1] was “Dose-dependent effect”. In addition, half-maximal inhibition in assay [2] (IC50) was put at 80 nM. The Ki came out at 127 nM in assay [3] and 58 nM in assay [4].

As usually defined, the IC50 is the point on the concentration scale where inhibition reaches its midpoint. The inhibition is the drop in the measured response relative to a control, in per cent.
